Among the data in patent USRE39221E1, “Composition comprising a tramadol material and acetaminophen and its use” (priority 1991, dated 2006) are ED50 and analgesia values, retold here.

The test system of this assay is acetylcholine-induced abdominal constriction. The assay can be described thus: prevention of acetylcholine-induced abdominal constriction in mice (analgesic activity). The assay is classed as in vivo, mice (male CD1). As to conditions: for ED50: Mus musculus, po, 0.5 h; for analgesia: 30 min. The protocol:
Male CD1 mice (weighing from 18-24 g) were utilized in determining the analgesic effects associated with the compositions of the invention. The mice were all dosed orally with tramadol hydrochloride (calculated as the base), which was completely dissolved in distilled water, and acetaminophen (calculated as the base), which was completely dissolved in distilled water or in distilled water containing 2% by volume of Tween 80 containing 100% polysorbate 80. The dosing volume was 10 mL/kg.
The procedure used in detecting and comparing the analgesic activity of different classes of analgesia drugs for which there is a good correlation with human efficacy is the prevention of acetylcholine-induced abdominal constriction in mice (H. Collier et al., Br. J. Pharmacol., 32, 295 (1968)).
Mice, intubated with various doses of tramadol hydrochloride alone, acetaminophen alone, combined doses of tramadol hydrochloride and acetaminophen, or vehicle such as distilled water, or distilled water containing 2% by volume of Tween 80, were injected intraperitoneally with a challenge dose of acetylcholine bromide. The acetylcholine was completely dissolved in distilled water at a concentration of […] and injected at the rate of 0.20 mL/20 g. For scoring purposes an “abdominal constriction” was defined as a contraction of the abdominal musculature accompanied by arching of the back and extension of the limbs. The mice were observed 10 minutes for the presence or absence of the abdominal constriction response beginning immediately after receiving the acetylcholine dose, which was 30 minutes after receiving the oral administration of tramadol hydrochloride, acetaminophen, combined doses of tramadol hydrochloride and acetaminophen, or vehicle. Each mouse was used only once.
The analysis of possible superadditivity for the compositions at each fixed ratio was determined as disclosed by R. J. Tallarida et al., Life Sci., 45, 947 (1989). This procedure involved the determination of the total amount in the mixture that is required to produce a specified level of effect, such as 50% (ED50mix), and the corresponding total amount that would be expected under simple additivity (ED50add). Where it was established that ED50mix<ED50add for a specific fixed-ratio, then that composition ratio was superadditive. Both the quantities ED50mix and ED50add were random variables; ED50mix was estimated from the dose-response curve for a specific fixed-ratio; ED50add was obtained by combining the ED50 estimates for the two drugs under additivity. ED50mix was then compared to ED50add via a Student's t-test.
The interaction between tramadol and acetaminophen was determined at precise dosage ratios of tramadol hydrochloride and acetaminophen. Multiple (typically 4-6) coded doses of each selected combination were studied for analgesic effectiveness after 30 minutes using an experimental design which permitted the complete randomization of the separate dosage forms tested.
In FIG. 1, the diagonal line joining the ED50 values of the two drugs given separately represents the simple additivity of effects at different component ratios. The dotted lines adjacent to the diagonal line define the 95% confidence interval. ED50 values falling under the curve (between the line and the origin) indicate superadditivity, i.e., unexpected enhancement of effects. The diagonal dashed lines radiating from the origin represent the dose ratios of APAP to tramadol hydrochloride used in mice receiving the combined drug dosages. The bars through the ED50 points for the tramadol and APAP composition represent the 95% confidence intervals of the ED50 value.

Structures are written as SMILES. Where two headings read alike, the source gives them in different places.

Take `COc1cccc([C@@]2(O)CCCC[C@@H]2CN(C)C)c1` (racemic) [tramadol only, (1RS, 2RS)-[(dimethylamino)-methyl]-1-(3-methoxy-phenyl)cyclohexanol]: the 50% effective dose (ED50) (as a rule, the dose that gives a 50% effect, or the effect in half of the subjects) (read-out: ED50 30 min (95% CI's) Tramadol) came out at 5.5 mg/kg. Besides, the analgesia is, setting by setting: (dose Tramadol 2 + APAP 0 mg/kg, p.o.) 3/15; (dose Tramadol 3 + APAP 0 mg/kg, p.o.) 4/15; (dose Tramadol 4 + APAP 0 mg/kg, p.o.) 14/45; (dose Tramadol 6 + APAP 0 mg/kg, p.o.) 20/45; (dose Tramadol 8 + APAP 0 mg/kg, p.o.) 40/60; (dose Tramadol 10 + APAP 0 mg/kg, p.o.) 15/15. Besides, where the note is “dose Tramadol 16 + APAP 0 mg/kg, p.o.”, the analgesia is recorded as 14/15.

On to `CC(=O)Nc1ccc(O)cc1` [APAP only, acetaminophen], for which the ED50 (APAP component of the ED50, p.o., 30 min after dosing, read-out: ED50 30 min (95% CI's) APAP) amounted to 164 mg/kg. The analgesia is listed as 2/15 (dose Tramadol 0 + APAP 30 mg/kg, p.o.); 12/43 (dose Tramadol 0 + APAP 40 mg/kg, p.o.); 1/15 (dose Tramadol 0 + APAP 50 mg/kg, p.o.); 8/30 (dose Tramadol 0 + APAP 60 mg/kg, p.o.); 23/60 (dose Tramadol 0 + APAP 80 mg/kg, p.o.); 13/30 (dose Tramadol 0 + APAP 100 mg/kg, p.o.). Further, the analgesia was 13/30 (dose Tramadol 0 + APAP 120 mg/kg, p.o.); 10/30 (dose Tramadol 0 + APAP 160 mg/kg, p.o.); 13/25 (dose Tramadol 0 + APAP 200 mg/kg, p.o.); 14/25 (dose Tramadol 0 + APAP 240 mg/kg, p.o.); 12/15 (dose Tramadol 0 + APAP 400 mg/kg, p.o.); 13/15 (dose Tramadol 0 + APAP 800 mg/kg, p.o.).
